In test [1] the test system is 123 cells (CHO cells expressing recombinant human GPIb-IX and integrin αIIbβ3). In words: vWF-induced GPIb-IX-mediated activation of integrin αIIbβ3 (Oregon green-labeled fibrinogen binding, flow cytometry). Type of test: cell-based, Chinese Hamster. To be noted: PKG-transfected 123 cells, 12 μg/ml vWF, 1 mg/ml ristocetin, FIGS. 1B, 1C. The procedure: Human PKG Iβ cDNA was cloned by RT-PCR, using human platelet mRNA as templates. Sequence of the human PKG Iβ cDNA fragment matches the published sequence. Cloning of human PKG Iα cDNA was described previously. PKG Iα or Iβ in pCDNA3.1/Zeo+vector was transfected into 123 cells (CHO cells expressing recombinant human CPIb-IX and integrin αIIbβ3 using Lipofectamine plus (BRL). Expression of PKG was assessed by Western blotting with an antihuman PKG I antibody (Calbiochem). The kinase activity of the expressed enzymes was measured in cell homogenates using BPDEtide (Calbiochem) as substrate as detailed previously. vWF-induced GPIb-IX-mediated activation of integrin αIIbβ3 was examined by flow cytometry analysis of Oregon green-labeled fibrinogen binding to integrln αIIbβ3 as described previously. Briefly, cells were detached from tissue culture plate using 0.5 mM EDTA, washed at 4° C. and resuspended in modified Tyrode's solution. Cells then were incubated with Oregon green-labeled fibrinogen (20 μg/ml) in the presence of ristocetin and vWF at 22° C. for 30 minutes, and analyzed by FACScalibur flow cytometer. Nonspecific binding of fibrinogen was estimated by measuring fibrinogon binding in the presence of a specific integrin inhibitor RGDS (1 mM) (see Refs. 13 and 43-45).
In FIG. 1A, CHO cells expressing GPLb-JX and integrin αIIbβ3 (123 cells) were transfected with cDNA encoding PKGIα or vector. Expression of PKG Ia in 123 cells was detected by Western blotting with an anti-human PKG I antibody (Insert), and recombinant PKG activity was determined in the absence or presence of 20 μM 8-bromo-cGMP as previously described. Results are expressed as mean +SD (n=3). For FIGS. 1B and 1C, reconstitution of GPIb-IX-mediated integrin activation in CHO cells was published (see Ref. 13). […] Cells were analyzed by flow cytometry. Quantitative results from three experiments are expressed as fibrinogen binding indices (total bound fluorescence (Fg)/nonspecifically bound fluorescence (Fg+RGDS)), and shown in FIG. 1B (mean ±SD).

The subject of the next test is platelets. In words: Low-dose α-thrombin-induced aggregation of washed platelets. Type of test: cell-based, human. The procedure: Fresh blood from healthy volunteers was anticoagulated with 1/7 volume of ACD (2.5% trisodium citrate, 2% dextrose and 1.5% citric acid). Platelets were washed with CGS buffer (sodium chloride 0.12 M, trisodium citrate 0.0129 M and d-glucose 0.03 M, pH 6.5), resuspended in modified Tyrode's solution and allowed to incubate at 22° C. for 1 hours as previously described. In experiments using platelet-rich plasma (PRP), 1/10 volume of 3.8% trisodium citrate was used as anticoagulant. Platelet aggregation was measured using a turbidometric platelet aggregometer (Chrono-Log) at 37° C. vWF-dependent platelet aggregation was induced by addition of ristocetin or botrocetin to PRP. To differentiate CPIb-IX-mediated platelet agglutination from the second wave of integrin-dependent platelet aggregation, final concentrations of ristocetin were adjusted in each experiment to achieve a two-wave curve of aggregation. Washed platelets were used in platelet aggregation induced by a-thrombin (Enzyme Research Laboratories). To examine the effects of PKG, 100 μM of membrane permeable cGMP analogs, 8-bromo-cGMP or 8-dibutyl-cGMP (Calbiochem), or 1 μM sildenafil citrate (Pfizer) and added simultaneously with subthreshold concentrations of agonists. PKG inhibitors KT5823 (2 pM) and Rp-8PCPT-cGMP (0.2 mM) were preincubated with platelets at 37° C. for 5 minutes before addition of agonists.
In FIG. 5A, washed platelets were preincubated with 40 pg/mi anti-GPIba monoclonal antibody SZ2, integrin inhibitor RGDS, or inhibitors of PKG, KT5823 (2 μM) or Rp-8pCPT-cGMP (0.2 mM) (Calbiochem), for 5 min. Platelets also were preincubated with DMSO (vehicle for KT5823), KT5720 or buffer (Control) as controls. α-Thrombin (0.05 units/mi) then was added to induce platelet aggregation. Nonspecific JgG and RGES peptides also were examined as additional controls, but had no effect (not shown). In FIG. 5B, a subthreshold dose of thrombin was added to platelets immediately followed by addition of PKG activator 8-bromo-cGMP or buffer (Control). Shown in the figure are the representative results of at least three experiments.
In FIG. 6A, increasing concentrations of sildenafil or control 0.15 M NaCl solution were added to platelet-rich plasma followed by a subthreshold concentration of ristocetin. Platelet aggregation was recorded using a platelet aggregometer. In FIG. 6B, sildenafil or control buffer was added to washed platelets followed by addition of subthreshold doses of thrombin to induce platelet aggregation. It was noted that platelet aggregation occurs in the presence of sildenafil. The figure includes the representative results of at least three experiments.
In FIG. 7A, PRP was preincubated with 0.1 mM 8-bromo-cGMP for increasing lengths of time at 37° C. as indicated. The vWF modulator, ristocetin (1.25 mg/ml), then was added to induce platelet aggregation in a turbidometric platelet aggregometer. In FIG. 7B, PRP was preincubated with a high concentration of 8-bromo-cGMP (1 mM) for 5 minutes. Ristocetin then was added to induce platelet aggregation. In FIGS. 7C and 7D, washed platelets in modified Tyrode's solution were preincubated with 1 mM 8-bromo-cGMP (C), or various concentrations of 8-pCPT-cGMP (D) at 37° C. for 5 minutes. Thrombin (0.05 u/ml) then was added to induce platelet aggregation.

Take `Nc1nc2c(nc(Br)n2[C@@H]2O[C@@H]3COP(=O)(O)O[C@H]3[C@H]2O)c(=O)[nH]1` [8-bromo-cGMP]: the “vWF-induced fibrinogen binding to integrin” value is reported as “further increased” in test [1] and “dramatically increased” in test [1] (row). For the same compound, in the test on platelets (8-bromo-cGMP 100 μM, FIG. 5), the “GPIb-IX-dependent platelet activation, agent added simultaneously with thrombin” value is “promoted”. For the same compound, in the test on platelets (washed platelets, thrombin 0.02 units/ml, FIGS. 5B, 6B), the “platelet aggregation together with a subthreshold concentration of thrombin” value is recorded as “induced platelet aggregation”.

The values above are taken from patent publication US20040087539A1, “Method of treating conditions related to platelet activity” (priority 2003, published 2004).
